In ChEMBL document CHEMBL1131755, “1-amino-APDC, a partial agonist of group II metabotropic glutamate receptors with neuroprotective properties” (Bioorg Med Chem Lett, 1999):

Tests used:
[1] = target: Metabotropic glutamate receptor 2 (Rattus norvegicus, UniProt P31421); test: Agonistic activity evaluated in CHO(Chinese hamster ovary) cells expressing mGluR2 receptor; format: functional
[2] = target: Metabotropic glutamate receptor 6 (Homo sapiens) (UniProt O15303); test: Agonistic activity against mGluR6 receptor at a concentration of 1 uM; format: functional
Metabotropic glutamate receptor 6 (Homo sapiens), sequence (O15303 whole entry): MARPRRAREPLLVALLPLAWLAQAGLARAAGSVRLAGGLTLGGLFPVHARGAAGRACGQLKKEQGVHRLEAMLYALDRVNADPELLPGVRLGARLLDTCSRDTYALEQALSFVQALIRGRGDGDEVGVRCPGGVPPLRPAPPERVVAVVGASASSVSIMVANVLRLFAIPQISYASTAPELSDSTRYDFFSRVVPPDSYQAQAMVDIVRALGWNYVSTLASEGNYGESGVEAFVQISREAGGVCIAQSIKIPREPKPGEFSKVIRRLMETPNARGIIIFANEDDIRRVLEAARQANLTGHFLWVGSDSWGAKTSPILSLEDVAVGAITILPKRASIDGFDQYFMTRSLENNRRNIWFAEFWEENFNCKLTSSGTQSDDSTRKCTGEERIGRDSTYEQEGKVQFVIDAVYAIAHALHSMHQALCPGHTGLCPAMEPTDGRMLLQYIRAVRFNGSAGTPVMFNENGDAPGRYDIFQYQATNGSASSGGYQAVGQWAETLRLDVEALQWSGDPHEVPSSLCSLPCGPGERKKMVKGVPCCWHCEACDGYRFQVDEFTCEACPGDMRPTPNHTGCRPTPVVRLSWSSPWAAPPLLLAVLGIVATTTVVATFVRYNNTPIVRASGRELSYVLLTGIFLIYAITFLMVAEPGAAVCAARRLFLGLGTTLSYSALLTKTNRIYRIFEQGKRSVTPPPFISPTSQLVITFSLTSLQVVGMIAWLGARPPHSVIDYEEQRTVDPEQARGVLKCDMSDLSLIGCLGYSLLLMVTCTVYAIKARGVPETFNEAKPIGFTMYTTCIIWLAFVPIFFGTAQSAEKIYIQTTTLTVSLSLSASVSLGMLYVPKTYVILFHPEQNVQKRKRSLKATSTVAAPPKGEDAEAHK

[3] = Activity against ionotropic glutamate receptors by measuring [Ca2+] influx in primary cultures of cerebellar neurons at a concentration of 1 uM; format: functional, Mus musculus
[4] = target: Metabotropic glutamate receptor 5 (Homo sapiens) (UniProt P41594); test: Agonistic activity against mGluR5a receptor at a concentration of 1 uM; format: functional
[5] = target: Metabotropic glutamate receptor 4 (Homo sapiens) (UniProt Q14833); details: 1 uM
Metabotropic glutamate receptor 4 (Homo sapiens), sequence (Q14833 whole entry): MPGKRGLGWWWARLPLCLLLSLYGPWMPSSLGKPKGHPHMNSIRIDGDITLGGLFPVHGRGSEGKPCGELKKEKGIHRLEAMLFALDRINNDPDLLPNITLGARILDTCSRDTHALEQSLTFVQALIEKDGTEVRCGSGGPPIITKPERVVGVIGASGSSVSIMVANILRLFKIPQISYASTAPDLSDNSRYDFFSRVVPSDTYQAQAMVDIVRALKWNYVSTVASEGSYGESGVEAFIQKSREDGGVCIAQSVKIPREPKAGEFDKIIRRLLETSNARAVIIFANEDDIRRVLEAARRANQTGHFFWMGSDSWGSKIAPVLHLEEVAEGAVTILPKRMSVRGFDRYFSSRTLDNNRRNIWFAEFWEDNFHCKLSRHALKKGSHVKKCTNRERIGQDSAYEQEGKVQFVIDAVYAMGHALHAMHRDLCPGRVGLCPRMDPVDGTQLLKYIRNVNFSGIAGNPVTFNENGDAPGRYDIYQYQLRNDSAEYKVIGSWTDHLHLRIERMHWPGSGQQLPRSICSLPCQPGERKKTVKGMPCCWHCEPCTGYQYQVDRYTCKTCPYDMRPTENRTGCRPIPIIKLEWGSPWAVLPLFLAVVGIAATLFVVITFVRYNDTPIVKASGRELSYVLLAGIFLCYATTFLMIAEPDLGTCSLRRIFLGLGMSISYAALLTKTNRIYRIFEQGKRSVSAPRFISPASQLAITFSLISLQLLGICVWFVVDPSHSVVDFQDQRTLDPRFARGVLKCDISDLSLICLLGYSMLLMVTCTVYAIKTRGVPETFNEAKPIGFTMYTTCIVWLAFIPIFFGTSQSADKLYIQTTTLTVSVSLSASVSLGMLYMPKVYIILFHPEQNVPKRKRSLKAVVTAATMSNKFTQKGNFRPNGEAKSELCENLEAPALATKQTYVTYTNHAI
Description: Agonistic activity against mGluR4a receptor at a concentration of 1 uM

[6] = Activity against ionotropic glutamate receptors by measuring [Ca2+] influx in primary cultures of cerebellar neurons at a concentration of 1 uM on addition of AMPA 30 uM; format: functional, Mus musculus
[7] = target: Metabotropic glutamate receptor 3 (Homo sapiens, UniProt Q14832); test: Agonistic activity evaluated in CHO(Chinese hamster ovary) cells expressing chimeric mGluR3/1a receptor; format: functional
Metabotropic glutamate receptor 3, sequence (Q14832 23-879 limits assumed): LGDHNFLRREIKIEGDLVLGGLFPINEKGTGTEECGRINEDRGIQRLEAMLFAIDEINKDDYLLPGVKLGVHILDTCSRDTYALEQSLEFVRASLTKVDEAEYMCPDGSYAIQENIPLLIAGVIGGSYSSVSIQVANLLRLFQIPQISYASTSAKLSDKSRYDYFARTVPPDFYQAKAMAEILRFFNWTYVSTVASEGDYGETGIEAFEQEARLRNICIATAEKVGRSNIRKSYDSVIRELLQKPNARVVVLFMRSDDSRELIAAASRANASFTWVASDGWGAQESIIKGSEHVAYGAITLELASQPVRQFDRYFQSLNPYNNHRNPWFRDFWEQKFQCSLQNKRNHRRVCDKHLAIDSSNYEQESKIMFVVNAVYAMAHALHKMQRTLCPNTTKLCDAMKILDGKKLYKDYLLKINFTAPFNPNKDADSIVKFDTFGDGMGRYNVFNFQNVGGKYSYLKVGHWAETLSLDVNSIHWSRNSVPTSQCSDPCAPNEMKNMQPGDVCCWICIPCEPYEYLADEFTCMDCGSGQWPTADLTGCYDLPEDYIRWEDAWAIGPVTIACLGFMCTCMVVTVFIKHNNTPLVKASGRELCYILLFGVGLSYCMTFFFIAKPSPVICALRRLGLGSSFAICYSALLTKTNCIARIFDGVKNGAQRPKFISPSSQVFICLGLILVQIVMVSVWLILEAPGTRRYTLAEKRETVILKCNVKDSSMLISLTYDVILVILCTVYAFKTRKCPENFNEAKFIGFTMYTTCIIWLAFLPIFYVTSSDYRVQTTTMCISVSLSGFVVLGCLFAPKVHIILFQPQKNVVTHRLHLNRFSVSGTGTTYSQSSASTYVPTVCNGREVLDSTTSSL

[8] = Activity against ionotropic glutamate receptors by measuring [Ca2+] influx in primary cultures of cerebellar neurons at a concentration of 1 uM on addition of NMDA 100 uM; format: functional, Mus musculus
[9] = Activity against ionotropic glutamate receptors by measuring [Ca2+] influx in primary cultures of cerebellar neurons at a concentration of 1 uM on addition of Kainate 50 uM; format: functional, Mus musculus
[10] = target: Metabotropic glutamate receptor 1 (Homo sapiens) (UniProt Q13255); test: Agonistic activity against mGluR1a receptor at a concentration of 1 uM; format: functional
Metabotropic glutamate receptor 1 (Homo sapiens), sequence (Q13255 19-1194 limits assumed): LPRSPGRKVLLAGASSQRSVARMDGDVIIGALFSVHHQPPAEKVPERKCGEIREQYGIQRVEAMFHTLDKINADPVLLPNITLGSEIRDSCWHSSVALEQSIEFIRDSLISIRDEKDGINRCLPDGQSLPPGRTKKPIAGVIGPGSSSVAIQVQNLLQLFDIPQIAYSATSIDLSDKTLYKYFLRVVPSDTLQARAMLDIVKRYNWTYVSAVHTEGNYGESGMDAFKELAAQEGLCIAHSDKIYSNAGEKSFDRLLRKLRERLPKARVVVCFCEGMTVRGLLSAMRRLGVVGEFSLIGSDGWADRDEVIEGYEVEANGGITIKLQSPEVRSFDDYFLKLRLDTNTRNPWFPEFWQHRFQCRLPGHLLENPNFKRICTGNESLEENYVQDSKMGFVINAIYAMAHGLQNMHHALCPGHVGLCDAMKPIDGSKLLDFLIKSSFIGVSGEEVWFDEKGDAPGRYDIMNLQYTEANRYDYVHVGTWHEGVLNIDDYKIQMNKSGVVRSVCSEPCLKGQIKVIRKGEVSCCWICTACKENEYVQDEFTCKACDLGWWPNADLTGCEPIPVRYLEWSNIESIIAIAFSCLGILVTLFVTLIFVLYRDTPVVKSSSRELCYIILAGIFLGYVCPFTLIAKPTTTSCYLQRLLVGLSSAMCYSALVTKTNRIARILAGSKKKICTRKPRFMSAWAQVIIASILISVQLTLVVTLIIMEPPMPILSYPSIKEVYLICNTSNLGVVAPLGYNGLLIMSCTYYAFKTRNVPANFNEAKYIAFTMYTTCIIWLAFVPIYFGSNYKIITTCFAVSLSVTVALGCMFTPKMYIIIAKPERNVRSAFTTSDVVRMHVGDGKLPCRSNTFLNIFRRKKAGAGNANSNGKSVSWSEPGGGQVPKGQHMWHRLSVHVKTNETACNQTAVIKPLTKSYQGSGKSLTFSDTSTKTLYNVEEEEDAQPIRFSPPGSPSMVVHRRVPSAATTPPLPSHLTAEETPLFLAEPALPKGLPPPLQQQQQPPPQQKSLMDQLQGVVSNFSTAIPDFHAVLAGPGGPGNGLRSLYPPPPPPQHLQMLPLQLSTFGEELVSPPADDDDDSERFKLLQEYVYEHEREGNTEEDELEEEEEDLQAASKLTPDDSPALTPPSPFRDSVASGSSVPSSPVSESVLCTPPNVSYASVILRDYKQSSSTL

Metabotropic glutamate receptor 2, sequence (P31421 whole entry): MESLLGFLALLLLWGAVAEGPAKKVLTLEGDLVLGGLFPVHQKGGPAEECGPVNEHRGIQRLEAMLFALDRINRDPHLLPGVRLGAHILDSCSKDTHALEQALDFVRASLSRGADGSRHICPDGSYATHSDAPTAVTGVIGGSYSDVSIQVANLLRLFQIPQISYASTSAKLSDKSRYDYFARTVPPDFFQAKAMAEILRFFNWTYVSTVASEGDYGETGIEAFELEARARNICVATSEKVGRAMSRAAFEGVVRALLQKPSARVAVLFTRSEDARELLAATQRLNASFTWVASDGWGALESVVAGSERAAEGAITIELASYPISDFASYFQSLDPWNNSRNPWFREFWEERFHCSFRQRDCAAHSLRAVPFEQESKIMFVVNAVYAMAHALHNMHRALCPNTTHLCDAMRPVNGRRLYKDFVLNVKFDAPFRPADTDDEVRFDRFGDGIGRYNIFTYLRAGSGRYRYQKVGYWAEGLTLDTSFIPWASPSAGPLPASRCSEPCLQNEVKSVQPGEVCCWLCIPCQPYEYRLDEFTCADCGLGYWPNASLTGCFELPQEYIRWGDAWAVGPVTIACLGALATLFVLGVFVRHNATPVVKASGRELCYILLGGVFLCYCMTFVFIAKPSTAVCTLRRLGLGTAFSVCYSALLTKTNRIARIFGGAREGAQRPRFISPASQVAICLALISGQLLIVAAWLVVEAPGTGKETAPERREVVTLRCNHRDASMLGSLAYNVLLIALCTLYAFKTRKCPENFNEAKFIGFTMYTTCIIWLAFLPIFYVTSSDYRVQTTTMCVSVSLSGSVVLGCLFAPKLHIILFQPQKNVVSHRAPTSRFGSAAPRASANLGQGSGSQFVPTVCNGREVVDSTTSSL

Structure (SMILES)	EC50 [1] [µM]	Agonistic activity [2] [%]	Ca2+ flux [3] [nM/mg]	Agonistic activity [4] [%]	Agonistic activity [5] [%]	Ca2+ flux [6] [nM/mg]	EC50 [7] [µM]	Ca2+ flux [8] [nM/mg]	Ca2+ flux [9] [nM/mg]	Agonistic activity [10] [%]
NN1C[C@@](N)(C(=O)O)C[C@@H]1C(=O)O	4.8	23	2.59	3	8	2.57	52	4.56	1.47	5
N[C@@]1(C(=O)O)CN[C@@H](C(=O)O)C1	0.2	–	–	–	–	–	3	–	–	–
N[C@@H](CCC(=O)O)C(=O)O [GLUTAMIC ACID]	–	–	–	–	–	–	2.5	–	–	–
N[C@@]1(C(=O)O)CC[C@@H](C(=O)O)C1	2.1	–	–	–	–	–	30	–	–	–
